Test results published in patent US10273208B2, “Screening methods for the binding affinity of chemical entities to biological molecules and NEDD4-1 inhibitors identified by the screening methods” (Northwestern University, priority 2014, dated 2019).
“Also recorded” adds a separate entry of the source.

Legend:
[1] = biological target: T1, NEDD4-1 (~120 kDa band) in TC71 Ewing's sarcoma cells (Homo sapiens, UniProt P46934); assay: Cell-based selectivity studies with alkyne probe 15, click reaction, in-gel fluorescence; conditions: pretreatment 1 h, then 2 μM probe 15
T1 sequence (P46934 1-900 isoform P46934-4): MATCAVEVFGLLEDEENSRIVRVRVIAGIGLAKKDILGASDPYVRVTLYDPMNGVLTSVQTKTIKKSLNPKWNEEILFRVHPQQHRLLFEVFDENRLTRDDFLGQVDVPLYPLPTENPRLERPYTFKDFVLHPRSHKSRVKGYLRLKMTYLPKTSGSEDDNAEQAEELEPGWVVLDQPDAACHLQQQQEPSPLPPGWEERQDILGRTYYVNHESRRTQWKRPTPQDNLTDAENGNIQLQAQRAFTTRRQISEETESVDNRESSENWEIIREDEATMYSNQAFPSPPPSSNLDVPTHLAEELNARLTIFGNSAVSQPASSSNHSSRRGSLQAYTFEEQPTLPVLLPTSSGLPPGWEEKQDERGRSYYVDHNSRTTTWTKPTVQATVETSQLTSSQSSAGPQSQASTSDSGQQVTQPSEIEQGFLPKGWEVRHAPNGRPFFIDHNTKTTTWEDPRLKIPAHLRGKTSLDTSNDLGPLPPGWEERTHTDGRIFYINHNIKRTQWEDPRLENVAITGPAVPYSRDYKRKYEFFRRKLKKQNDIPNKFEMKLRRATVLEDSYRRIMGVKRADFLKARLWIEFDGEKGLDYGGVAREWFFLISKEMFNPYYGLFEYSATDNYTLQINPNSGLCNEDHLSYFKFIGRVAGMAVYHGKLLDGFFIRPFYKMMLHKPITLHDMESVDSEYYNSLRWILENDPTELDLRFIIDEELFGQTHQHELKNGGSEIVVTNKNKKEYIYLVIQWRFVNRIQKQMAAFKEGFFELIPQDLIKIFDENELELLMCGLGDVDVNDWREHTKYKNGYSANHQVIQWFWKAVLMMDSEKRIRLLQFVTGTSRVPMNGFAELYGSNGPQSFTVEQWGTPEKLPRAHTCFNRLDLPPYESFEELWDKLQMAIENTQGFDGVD
Protocol: We treated TC71 Ewing's sarcoma cells (NEDD4-1 positive),^[6b] with 2 μM of compound 15, followed by lysis, click reaction with rhodamine azide, and in-gel fluorescence.^[15]
TC71 cells were cultured in Iscove's Modified Dulbecco's Medium (IMDM), 20% (v/v) FBS, 4 mM glutamine, and lx ITS (5 μg/mL insulin, 5 μg/mL transferrin, 5 ng/mL selenous acid). Cells were grown to confluence in 6-well plates (9.6 cm^2 per well). The growth medium was aspirated off and replaced with 2 mL serum-free IMDM containing 0.1% DMSO or the indicated concentration of inhibitor in 0.1% DMSO. After 1 h incubation time at 37° C., cells were treated with 0.1% DMSO or 2 μM of probe 15 in 0.1% DMSO for an additional hour. […] Proteins were then resolved by SDS-PAGE 7.5% or 15% acrylamide gels, and subjected to in-gel scanning fluorescence imaging on the Typhoon 9400 at 610 nm excitation. The gel was then stained with Coomassie Brilliant Blue to visualize all proteins. Western blots were performed with anti-NEDD4-1 antibody from Cell Signaling (2740S).

[2] = biological target: T2, NEDD4-1 HECT:ubiquitin-fluorescein interaction (Homo sapiens, UniProt P46934); assay: Fluorescence polarization assay of NEDD4-1:Ub binding; conditions: NEDD4-1 HECT 7.98 μM, ubiquitin-fluorescein 50 nM, 1 h
T2 construct: to elute NEDD4-1 HECT domain (50 mM HEPES, 150 mM NaCl, 0.1 mM EDTA 1 mM DTT); GST (N, cleaved yes); made in house; host or cells: E. coli BL21
T2 sequence (P46934 with tags, fused parts or gaps): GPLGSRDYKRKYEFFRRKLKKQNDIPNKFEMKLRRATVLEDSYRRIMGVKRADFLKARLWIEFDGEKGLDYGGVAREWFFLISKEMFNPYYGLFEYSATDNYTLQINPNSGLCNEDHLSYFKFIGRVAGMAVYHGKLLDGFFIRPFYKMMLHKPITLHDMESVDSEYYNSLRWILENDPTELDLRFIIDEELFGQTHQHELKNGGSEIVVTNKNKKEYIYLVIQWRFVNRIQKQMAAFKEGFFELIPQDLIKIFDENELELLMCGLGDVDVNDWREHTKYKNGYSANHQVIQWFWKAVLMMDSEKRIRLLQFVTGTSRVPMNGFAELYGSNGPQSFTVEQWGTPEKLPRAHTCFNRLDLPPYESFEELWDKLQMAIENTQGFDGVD
Protocol: NEDD4-1 HECT (7.98 μM) and ubiquitin-fluorescein (50 nM, Lifesensors) in 50 mM HEPES pH 7.5 150 mM NaCl 0.1 mM EDTA were treated with DMSO or varying concentrations of inhibitor in 1% DMSO in black 96 well plates. Changes in fluorescence polarization were monitored over 1 h with a Biotek Synergy 4 plate reader. Slopes of ln(polarization) vs. time were plotted with GraphPad Prism and used to determine the pseudo-first order rate contstant kobs for a given concentration of inhibitor. The values of kinact/KI for each inhibitor were then determined by fitting the kobs vs. [inhibitor] plot to the equation kobs=kinact*[inhibitor]/([inhibitor]+KI). All reactions were performed in triplicate and plotted as mean±s.e.m.

NEDD4-1 HECT domain [3] = biological target: T3, NEDD4-1 HECT domain (Homo sapiens, UniProt P46934); assay: In vitro ubiquitination assays; format: biochemical; conditions: NEDD4-1 HECT pretreated with 1 mM compound for 3 h, quenched after 5 min
T3 construct: to elute NEDD4-1 HECT domain (50 mM HEPES, 150 mM NaCl, 0.1 mM EDTA 1 mM DTT); GST (N, cleaved yes); made in house; host or cells: E. coli BL21
T3 sequence (P46934 with tags, fused parts or gaps): T2 sequence (P46934 with tags, fused parts or gaps)
Protocol: FIG. 15A, FIG. 15B and FIG. 15C. (FIG. 15A) Enzymatic assay with compounds 1, 2, and 4. NEDD4-1 HECT domain was pretreated with 1% DMSO (lane 1), or 1 mM of compounds 1 (lane 2), 2 (lane 3), or 4 (lane 4) for 3 h before beginning the assay. The reaction mixtures were quenched after 5 min, and polyubiquitin chains were detected by Western blot with anti-ubiquitin antibody. (FIG. 15B) Cartoon depiction of the crystal structure of NEDD4-1:1 with key side chains and the inhibitor shown as spheres. (FIG. 15C) Close-up view of the inhibitor-binding site with the key side chains depicted as sticks and colored by atom type. The 2FO-FC electron density map (mesh, contoured at 1.0 σ) is presented for Cys^627 and 1.
FIG. 16A, FIG. 16B, FIG. 16C and FIG. 16D. (FIG. 16A) and (FIG. 16B) Compound 6 disrupts the NEDD4-1:Ub interaction as shown by a fluorescence polarization assay. Mean±s.e.m., n=3. (FIG. 16C) Compound 6 inhibits the ability of NEDD4-1 to polyubiquitinate the Wbp2-C-K222 protein substrate. NEDD4-1 was pretreated with 1% DMSO (lane 1), or 100 μM of compound 6 (lane 2) or compound 4 (lane 3) for 1.5 h before beginning the assay. Reaction mixtures were quenched at the indicated times and the amount of ubiquitinated Wbp2-C-K222 was determined using in-gel fluorescence. (FIG. 16D) Quantification of polyubiquitin chains in FIG. 16B. Mean±s.e.m., n=2. […]

NEDD4-1 HECT domain [4] = biological target: T3, NEDD4-1 HECT domain; assay: Covalent labeling of NEDD4-1 HECT domain (gel filtration, whole protein ESI-MS); format: binding
Protocol: 10 μM of NEDD4-1 HECT domain in 50 mM HEPES 150 mM NaCl 0.1 mM EDTA 1 mM DTT pH 7.5 was treated with a mixture of ten fragments (from 10 mM each DMSO stock solution mixtures; final concentrations: 100 μM of each fragment, and 1% DMSO). Fragment structures and mixture compositions were the same as reported previously. The reaction mixture was incubated for 4 h at 23° C. before being passed through Zeba gel filtration columns (Thermo, 7K MWCO) to remove unreacted fragments. The protein solution was then immediately analyzed by whole protein LC/ESI-MS.
Accurate-mass data were obtained on an Agilent 6210A LC-TOF mass spectrometer in positive ion mode using electrospray ionization. Samples were chromatographed on the LC-TOF instrument using a Poroshell 120 EC-C18 HPLC column (2.1*50 mm, 2.7 micron), an Agilent Series 1200 HPLC binary pump, and an Agilent Series 1200 autoinjector. The HPLC column was held at 45° C. and the autosampler was held at 8° C. Mobile Phase A was a solution of 0.1% formic acid in water:acetonitrile (19:1). Mobile Phase B was a solution of 0.1% formic acid in acetonitrile. The flow rate was set to 250 μL/min. The gradient used was 0% B for 2 minutes, ramping linearly to 90% B from 2 minutes to 5 minutes, holding at 90% B from 5 minutes to 7 minutes, and then returning to 0% B at 7.1 minutes. The column was allowed to equilibrate for 2.7 minutes before the next injection was initiated. The eluent from the column was diverted to waste for the first 2 minutes. The spectra were acquired from 301 to 3200 daltons using a gas temperature of 340° C., a gas flow of 7 liters/min, and the nebulizer gas at 35 psi. The following voltages were used: capillary 4200 V, fragmentor 230V, skimmer 64V, and octapole RF peak 250V. Spectra were acquired at a rate of 1 spectra/sec. The data was processed using MassHunter software version B.02.00. Maximum entropy deconvolutions were performed with a Mass Step of 1, S/N Threshold of 30, Average Mass at 90% of Peak Height, and 5 Charge States Minimum.
10 μM of NEDD4-1 HECT domain in 50 mM HEPES 150 mM NaCl 0.1 mM EDTA 1 mM DTT pH 7.5 was treated with 1 mM of inhibitor 1 or 2 (from 100 mM DMSO stock solution; final concentrations: 1 mM of inhibitor, 1% DMSO, and 0.2% CHAPS to solubilize the inhibitors at 1 mM). The reaction mixture was incubated for 4 h at 23° C. before being passed through Zeba gel filtration columns (Thermo, 7K MWCO) to remove unreacted inhibitor. The protein solution was then immediately used for crystallization or enzymatic assay.

## COC(=O)/C=C/CNC(=O)c1c(C)n(C)c2ccccc12 [Compound 11, Methyl(E)-4-(1,2-dimethyl-1H-indole-3-carboxamido)but-2-enoate]
[1]
  effect of pretreatment on probe 15 labeling of the ~120 kDa band (NEDD4-1): inactive

## COC(=O)/C=C/CNC(=O)c1c(C)n(C2CCCC2)c2ccc(OC)cc12 [Compound 6]
[2]
  kinact: 5.8e-05 s⁻¹
[2]; read-out: K1 (disruption of NEDD4-1:Ub binding)
  KI (inactivation constant): 29.3 µM

## COC(=O)/C=C/CNC(=O)c1c[nH]nc1-c1cccc(F)c1 [Compound 4, Methyl(E)-4-(3-(3-fluorophenyl)-1H-pyrazole-4-carboxamido)but-2-enoate]
NEDD4-1 HECT domain [3]
  polyubiquitin chain assembly by NEDD4-1 (anti-ubiquitin Western blot): did not affect NEDD4-1 activity

## COC(=O)/C=C/CNC(=O)c1c(C)n(C)c2ccc(OC)cc12 [Compound 1, Methyl(E)-4-(5-methoxy-1,2-dimethyl-1H-indole-3-carboxamido)but-2-enoate]
NEDD4-1 HECT domain [4]; compound 100 μM, NEDD4-1 10 μM, 4 h
  labeling of NEDD4-1: ~40%
NEDD4-1 HECT domain [4]; compound 100 μM, NEDD4-1 HECT 10 μM, 4 h
  labeling of NEDD4-1 HECT domain (qualitative): monolabel
NEDD4-1 HECT domain [4]; compound 100 μM, NEDD4-1 HECT 10 μM, ubiquitin 60 μM, 4 h
  labeling of NEDD4-1 in the presence of ubiquitin: completely inhibited
NEDD4-1 HECT domain [4]; compound 1 mM, 3-4 h
  modification of NEDD4-1 HECT domain at 1 mM: complete modification; also recorded: fully labels NEDD4-1 HECT domain after 3 h, with minor non-specific dilabeling
NEDD4-1 HECT domain [4]; ten mixtures of ten fragments, 100 μM each, 4 h
  covalent modification of NEDD4-1 HECT domain in the mixture screen: weak covalent modifiers
NEDD4-1 HECT domain [3]
  polyubiquitin chain assembly by NEDD4-1 (anti-ubiquitin Western blot): defective at assembling polyubiquitin chains; also recorded: inhibition of polyubiquitization
